# Laboratory results from patent US20260216149A1, “USE OF DIAZAPHENANTHRENE PROTONATED DIMER” (XI’AN LIZE TECHNOLOGY PROJECT INVESTMENT CO., LTD., priority 2023, published 2026).
# Experiments:
# [1] = system: K. pneumoniae; assay: Tests for MIC and MBC; assay type: cell-based, Klebsiella pneumoniae; conditions: unit assumed; for MIC: 12 h culture, absorbance 600 nm; for MBC: subculture further 12 h
# [2] = system: C. albicans; assay: Tests for MIC and MFC; assay type: cell-based, Candida albicans; conditions: unit assumed; for MIC: 12 h culture, absorbance 600 nm; for MFC: subculture further 12 h
# [3] = system: E. faecalis; assay: Tests for MIC and MBC; assay type: cell-based, Enterococcus faecalis; conditions: unit assumed; for MIC: 12 h culture, absorbance 600 nm; for MBC: subculture further 12 h
# [4] = system: S. aureus; conditions: 12 h culture, absorbance 600 nm
# [5] = system: S. lactis; assay: Tests for MIC and MBC; assay type: cell-based, Streptococcus lactis; conditions: unit assumed; for MIC: 12 h culture, absorbance 600 nm; for MBC: subculture further 12 h
# [6] = system: H. staphylococcus; assay: Tests for MIC and MBC; assay type: cell-based, hemolytic staphylococcus; conditions: unit assumed; for MIC: 12 h culture, absorbance 600 nm; for MBC: subculture further 12 h
# [7] = system: B. subtilis; assay: Tests for MIC and MBC; assay type: cell-based, Bacillus subtilis; conditions: unit assumed; for MIC: 12 h culture, absorbance 600 nm; for MBC: subculture further 12 h
# [8] = system: S. thermophilus; assay: Tests for MIC and MBC; assay type: cell-based, Streptococcus thermophilus; conditions: unit assumed; for MIC: 12 h culture, absorbance 600 nm; for MBC: subculture further 12 h
# [9] = system: E. coli; conditions: 12 h culture, absorbance 600 nm
# [10] = system: L. monocytogenes; assay: Tests for MIC and MBC; assay type: cell-based, Listeria monocytogenes; conditions: unit assumed; for MIC: 12 h culture, absorbance 600 nm; for MBC: subculture further 12 h
# [11] = system: A. flavus; assay: Tests for MIC and MFC; assay type: cell-based, Aspergillus flavus; conditions: unit assumed; for MIC: 12 h culture, absorbance 600 nm; for MFC: subculture further 12 h
# [12] = system: P. vulgaris; assay: Tests for MIC and MBC; assay type: cell-based, Proteus vulgaris; conditions: unit assumed; for MIC: 12 h culture, absorbance 600 nm; for MBC: subculture further 12 h
# [13] = system: S. mutans; assay: Tests for MIC and MBC; assay type: cell-based, Streptococcus mutans; conditions: unit assumed; for MIC: 12 h culture, absorbance 600 nm; for MBC: subculture further 12 h
# [14] = system: P. fluorescens; assay: Tests for MIC and MBC; assay type: cell-based, Pseudomonas fluorescens; conditions: unit assumed; for MIC: 12 h culture, absorbance 600 nm; for MBC: subculture further 12 h
# [15] = system: S. epidermidis; assay: Tests for MIC and MBC; assay type: cell-based, Staphylococcus epidermidis; conditions: unit assumed; for MIC: 12 h culture, absorbance 600 nm; for MBC: subculture further 12 h
# [16] = system: P. aeruginosa; assay: Tests for MIC and MBC; assay type: cell-based, Pseudomonas aeruginosa; conditions: unit assumed; for MIC: 12 h culture, absorbance 600 nm; for MBC: subculture further 12 h
# [17] = system: M. furfur; assay: Tests for MIC and MFC; assay type: cell-based, Malassezia furfur; conditions: unit assumed; for MIC: 12 h culture, absorbance 600 nm; for MFC: subculture further 12 h
# [18] = system: Y. enterocolitis; assay: Tests for MIC and MBC; assay type: cell-based, Yersinia enterocolitis; conditions: unit assumed; for MIC: 12 h culture, absorbance 600 nm; for MBC: subculture further 12 h
# [19] = system: C. neoformans; assay: Tests for MIC and MFC; assay type: cell-based, Cryptococcus neoformans; conditions: unit assumed; for MIC: 12 h culture, absorbance 600 nm; for MFC: subculture further 12 h
# [20] = system: B. cereus; assay: Tests for MIC and MBC; assay type: cell-based, Bacillus cereus; conditions: unit assumed; for MIC: 12 h culture, absorbance 600 nm; for MBC: subculture further 12 h
# [21] = system: S. bovis; assay: Tests for MIC and MBC; assay type: cell-based, Streptococcus bovis; conditions: unit assumed; for MIC: 12 h culture, absorbance 600 nm; for MBC: subculture further 12 h
# [22] = system: A. niger; assay: Tests for MIC and MFC; assay type: cell-based, Aspergillus niger; conditions: unit assumed; for MIC: 12 h culture, absorbance 600 nm; for MFC: subculture further 12 h
# [23] = system: C. diphtheriae; conditions: 12 h culture, absorbance 600 nm
# [24] = system: C. perfringens; conditions: 12 h culture, absorbance 600 nm
# [25] = system: T. rubrum; assay: Tests for MIC and MFC; assay type: cell-based, Trichophyton rubrum; conditions: unit assumed; for MIC: 12 h culture, absorbance 600 nm; for MFC: subculture further 12 h
# [26] = system: M. globosa; assay: Tests for MIC and MFC; assay type: cell-based, Malassezia globosa; conditions: unit assumed; for MIC: 12 h culture, absorbance 600 nm; for MFC: subculture further 12 h
# [27] = system: S. enteritidis; assay: Tests for MIC and MBC; assay type: cell-based, Salmonella enteritidis; conditions: unit assumed; for MIC: 12 h culture, absorbance 600 nm; for MBC: subculture further 12 h
compound,measurement,setting,value
O=S(=O)(O)O.c1cnc2c(c1)ccc1cccnc12.c1cnc2c(c1)ccc1cccnc12.c1cnc2c(c1)ccc1cccnc12.c1cnc2c(c1)ccc1cccnc12 [Example 3],MIC,[1],1 mg/L
same,MBC,[1],6 mg/L
same,MIC,[2],0.5 mg/L
same,MFC,[2],9 mg/L
same,MIC,[3],8 mg/L
same,MBC,[3],30 mg/L
same,MIC,[4],0.5
same,MIC,[5],1.5 mg/L
same,MBC,[5],6 mg/L
same,MIC,[6],0.2 mg/L
same,MBC,[6],0.6 mg/L
same,MIC,[7],0.6 mg/L
same,MBC,[7],3 mg/L
same,MIC,[8],1 mg/L
same,MBC,[8],5 mg/L
same,MIC,[9],0.5
same,MIC,[10],0.3 mg/L
same,MBC,[10],1.5 mg/L
same,MIC,[11],0.5 mg/L
same,MFC,[11],6 mg/L
same,MIC,[12],1 mg/L
same,MBC,[12],6 mg/L
same,MIC,[13],1 mg/L
same,MBC,[13],5 mg/L
same,MIC,[14],0.5 mg/L
same,MBC,[14],3 mg/L
same,MIC,[15],0.5 mg/L
same,MBC,[15],3 mg/L
same,MIC,[16],0.5 mg/L
same,MBC,[16],3 mg/L
same,MIC,[17],1 mg/L
same,MFC,[17],6 mg/L
same,MIC,[18],0.5 mg/L
same,MBC,[18],3 mg/L
same,MIC,[19],0.5 mg/L
same,MFC,[19],6 mg/L
same,MIC,[20],2 mg/L
same,MBC,[20],9 mg/L
same,MIC,[21],0.8 mg/L
same,MBC,[21],3 mg/L
same,MIC,[22],0.5 mg/L
same,MFC,[22],6 mg/L
same,MIC,[23],2
same,MIC,[24],3
same,MIC,[25],2 mg/L
same,MFC,[25],12 mg/L
same,MIC,[26],2 mg/L
same,MFC,[26],12 mg/L
same,MIC,[27],1 mg/L
same,MBC,[27],5 mg/L
F[Si-2](F)(F)(F)(F)F.c1cnc2c(c1)ccc1ccc[nH+]c12.c1cnc2c(c1)ccc1ccc[nH+]c12.c1cnc2c(c1)ccc1cccnc12.c1cnc2c(c1)ccc1cccnc12 [Example 2],MIC,[1],0.8 mg/L
same,MBC,[1],5 mg/L
same,MIC,[2],0.4 mg/L
same,MFC,[2],8 mg/L
same,MIC,[3],6 mg/L
same,MBC,[3],20 mg/L
same,MIC,[4],0.4
same,MIC,[5],1.2 mg/L
same,MBC,[5],4 mg/L
same,MIC,[6],0.2 mg/L
same,MBC,[6],0.5 mg/L
same,MIC,[7],0.6 mg/L
same,MBC,[7],2.5 mg/L
same,MIC,[8],0.8 mg/L
same,MBC,[8],4 mg/L
same,MIC,[9],0.4
same,MIC,[10],0.3 mg/L
same,MBC,[10],1.2 mg/L
same,MIC,[11],0.4 mg/L
same,MFC,[11],6 mg/L
same,MIC,[12],0.8 mg/L
same,MBC,[12],4 mg/L
same,MIC,[13],0.8 mg/L
same,MBC,[13],4 mg/L
same,MIC,[14],0.4 mg/L
same,MBC,[14],3 mg/L
same,MIC,[15],0.4 mg/L
same,MBC,[15],2.5 mg/L
same,MIC,[16],0.4 mg/L
same,MBC,[16],2 mg/L
same,MIC,[17],1 mg/L
same,MFC,[17],6 mg/L
same,MIC,[18],0.4 mg/L
same,MBC,[18],2 mg/L
same,MIC,[19],0.4 mg/L
same,MFC,[19],5 mg/L
same,MIC,[20],2 mg/L
same,MBC,[20],6 mg/L
same,MIC,[21],0.6 mg/L
same,MBC,[21],2 mg/L
same,MIC,[22],0.4 mg/L
same,MFC,[22],4 mg/L
same,MIC,[23],1.6
same,MIC,[24],2.5
same,MIC,[25],1.6 mg/L
same,MFC,[25],10 mg/L
same,MIC,[26],2 mg/L
same,MFC,[26],10 mg/L
same,MIC,[27],0.8 mg/L
same,MBC,[27],4 mg/L
